Measured values from BigSolDB 2.1.

Cc1cc([N+](=O)[O-])ccc1N
Details	solubility (mole fraction)
in 2-butanone, 278.15 K	0.0846
in 2-butanone, 280.65 K	0.0899
in 2-butanone, 283.15 K	0.0955
in 2-butanone, 285.65 K	0.101
in 2-butanone, 288.15 K	0.107
in 2-butanone, 290.65 K	0.114
in 2-butanone, 293.15 K	0.12
in 2-butanone, 295.65 K	0.127
in 2-butanone, 298.15 K	0.134
in 2-butanone, 300.65 K	0.141
in 2-butanone, 303.15 K	0.149
in 2-butanone, 305.65 K	0.157
in 2-butanone, 308.15 K	0.165
in 2-butanone, 310.65 K	0.174
in 2-butanone, 313.15 K	0.183
in acetone, 278.15 K	0.0764
in acetone, 280.65 K	0.0815
in acetone, 283.15 K	0.0875
in acetone, 285.65 K	0.0933
in acetone, 288.15 K	0.0996
in acetone, 290.65 K	0.106
in acetone, 293.15 K	0.113
in acetone, 295.65 K	0.12
in acetone, 298.15 K	0.127
in acetone, 300.65 K	0.135
in acetone, 303.15 K	0.142
in acetone, 305.65 K	0.151
in acetonitrile, 278.15 K	0.0308
in acetonitrile, 280.65 K	0.0335
in acetonitrile, 283.15 K	0.0362
in acetonitrile, 285.65 K	0.039
in acetonitrile, 288.15 K	0.0423
in acetonitrile, 290.65 K	0.0456
in acetonitrile, 293.15 K	0.0491
in acetonitrile, 295.65 K	0.0528
in acetonitrile, 298.15 K	0.0566
in acetonitrile, 300.65 K	0.0607
in acetonitrile, 303.15 K	0.0651
in acetonitrile, 305.65 K	0.0699
in acetonitrile, 308.15 K	0.0747
in acetonitrile, 310.65 K	0.0797
in acetonitrile, 313.15 K	0.0852
in cyclohexane, 283.15 K	2.5e-05
in cyclohexane, 285.65 K	2.87e-05
in cyclohexane, 288.15 K	3.37e-05
in cyclohexane, 290.65 K	3.87e-05
in cyclohexane, 293.15 K	4.47e-05
in cyclohexane, 295.65 K	5.27e-05
in cyclohexane, 298.15 K	6.13e-05
in cyclohexane, 300.65 K	6.99e-05
in cyclohexane, 303.15 K	8.08e-05
in cyclohexane, 305.65 K	9.26e-05
in cyclohexane, 308.15 K	0.000108
in cyclohexane, 310.65 K	0.000122
in cyclohexane, 313.15 K	0.000139
in ethanol, 278.15 K	0.00732
in ethanol, 280.65 K	0.00807
in ethanol, 283.15 K	0.00887
in ethanol, 285.65 K	0.00974
in ethanol, 288.15 K	0.0107
in ethanol, 290.65 K	0.0117
in ethanol, 293.15 K	0.0127
in ethanol, 295.65 K	0.0139
in ethanol, 298.15 K	0.0152
in ethanol, 300.65 K	0.0165
in ethanol, 303.15 K	0.018
in ethanol, 305.65 K	0.0197
in ethanol, 308.15 K	0.0213
in ethanol, 310.65 K	0.0231
in ethanol, 313.15 K	0.025
in ethyl acetate, 278.15 K	0.062
in ethyl acetate, 280.65 K	0.0669
in ethyl acetate, 283.15 K	0.0722
in ethyl acetate, 285.65 K	0.0776
in ethyl acetate, 288.15 K	0.0837
in ethyl acetate, 290.65 K	0.0897
in ethyl acetate, 293.15 K	0.096
in ethyl acetate, 295.65 K	0.103
in ethyl acetate, 298.15 K	0.11
in ethyl acetate, 300.65 K	0.117
in ethyl acetate, 303.15 K	0.125
in ethyl acetate, 305.65 K	0.133
in ethyl acetate, 308.15 K	0.142
in ethyl acetate, 310.65 K	0.151
in ethyl acetate, 313.15 K	0.16
in isopropanol, 278.15 K	0.00459
in isopropanol, 280.65 K	0.00511
in isopropanol, 283.15 K	0.00572
in isopropanol, 285.65 K	0.00635
in isopropanol, 288.15 K	0.00707
in isopropanol, 290.65 K	0.00781
in isopropanol, 293.15 K	0.00865
in isopropanol, 295.65 K	0.00961
in isopropanol, 298.15 K	0.0106
in isopropanol, 300.65 K	0.0118
in isopropanol, 303.15 K	0.0129
in isopropanol, 305.65 K	0.0142
in isopropanol, 308.15 K	0.0157
in isopropanol, 310.65 K	0.0172
in isopropanol, 313.15 K	0.0189
in methanol, 278.15 K	0.00834
in methanol, 280.65 K	0.00913
in methanol, 283.15 K	0.0101
in methanol, 285.65 K	0.0109
in methanol, 288.15 K	0.0119
in methanol, 290.65 K	0.0131
in methanol, 293.15 K	0.0142
in methanol, 295.65 K	0.0155
in methanol, 298.15 K	0.0168
in methanol, 300.65 K	0.018
in methanol, 303.15 K	0.0198
in methanol, 305.65 K	0.0213
in methanol, 308.15 K	0.0231
in methanol, 310.65 K	0.0249
in methanol, 313.15 K	0.027
in n-butanol, 278.15 K	0.00492
in n-butanol, 280.65 K	0.00552
in n-butanol, 283.15 K	0.00618
in n-butanol, 285.65 K	0.00691
in n-butanol, 288.15 K	0.00778
in n-butanol, 290.65 K	0.00858
in n-butanol, 293.15 K	0.00951
in n-butanol, 295.65 K	0.0106
in n-butanol, 298.15 K	0.0118
in n-butanol, 300.65 K	0.0131
in n-butanol, 303.15 K	0.0145
in n-butanol, 305.65 K	0.016
in n-butanol, 308.15 K	0.0177
in n-butanol, 310.65 K	0.0196
in n-butanol, 313.15 K	0.0216
in n-propanol, 278.15 K	0.00631
in n-propanol, 280.65 K	0.00701
in n-propanol, 283.15 K	0.00776
in n-propanol, 285.65 K	0.00853
in n-propanol, 288.15 K	0.00939
in n-propanol, 290.65 K	0.0103
in n-propanol, 293.15 K	0.0113
in n-propanol, 295.65 K	0.0124
in n-propanol, 298.15 K	0.0136
in n-propanol, 300.65 K	0.0148
in n-propanol, 303.15 K	0.0162
in n-propanol, 305.65 K	0.0176
in n-propanol, 308.15 K	0.0192
in n-propanol, 310.65 K	0.0209
in n-propanol, 313.15 K	0.0227
in toluene, 278.15 K	0.00159
in toluene, 280.65 K	0.00178
in toluene, 283.15 K	0.00204
in toluene, 285.65 K	0.0023
in toluene, 288.15 K	0.00258
in toluene, 290.65 K	0.00285
in toluene, 293.15 K	0.00317
in toluene, 295.65 K	0.00353
in toluene, 298.15 K	0.00391
in toluene, 300.65 K	0.00439
in toluene, 303.15 K	0.0048
in toluene, 305.65 K	0.00527
in toluene, 308.15 K	0.00584
in toluene, 310.65 K	0.00645
in toluene, 313.15 K	0.00714
